The assay deals with T1, human OX2R (Homo sapiens, UniProt O43614).
T1 construct: expressed in transfected cells; host or cells: Chinese hamster ovary (CHO) cells, kept under G418 selection
T1 sequence (O43614 1-444): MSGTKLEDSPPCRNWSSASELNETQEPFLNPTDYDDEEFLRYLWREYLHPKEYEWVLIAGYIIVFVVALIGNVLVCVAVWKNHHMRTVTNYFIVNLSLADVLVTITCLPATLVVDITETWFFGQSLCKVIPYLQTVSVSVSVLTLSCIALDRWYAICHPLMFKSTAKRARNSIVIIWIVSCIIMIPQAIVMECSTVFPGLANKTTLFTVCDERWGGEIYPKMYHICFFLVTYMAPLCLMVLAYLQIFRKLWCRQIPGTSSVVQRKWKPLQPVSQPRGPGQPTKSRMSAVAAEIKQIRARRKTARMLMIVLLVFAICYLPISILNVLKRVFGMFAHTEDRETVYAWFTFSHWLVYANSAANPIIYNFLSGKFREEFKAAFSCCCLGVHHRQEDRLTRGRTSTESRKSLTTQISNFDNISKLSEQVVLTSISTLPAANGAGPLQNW
Put plainly: IPOne (IP-1 accumulation) assay of orexin receptor agonist activity in CHO cells expressing human OX2R. The assay is classed as cell-based. To be noted: for IC50: CHO cells expressing human OX2R, IP-One assay, 2 hours incubation, four parameter logistic fit, read-out: hOX2R_IP IC50; for Emax: CHO, percent activity at maximum tested concentration, relative to reference compound at 1 uM (100% activity) for human OX2R. The text has this: The utility of the compounds in accordance with the present invention as orexin receptor OX1R and/or OX2R agonists may be readily determined without undue experimentation by methodology well known in the art. Both the OX1R and/or OX2R G-coupled protein receptors (GPCRs) couple through the Gαq signaling pathway, which ultimately promotes calcium mobilization via inositol triphosphate (IP3) production. […] The utility of the compounds in accordance with the present invention as orexin receptor OX1R and/or OX2R agonists may be determined utilizing this assay.
In a typical experiment, the OX1 and OX2 receptor agonist activity is determined in accordance with the following general experimental method. Chinese hamster ovary (CHO) cells expressing human OX1R and/or the human OX2R were grown in Iscove's modified DMEM containing glutaMAX™, 1% G418, 100 U/mL penicillin, 100 μg/mL streptomycin and 10% heat-inactivated qualified fetal bovine serum (FBS). […] During this incubation, IP-one detection reagents were prepared (38:1:1 lysis buffer:D2:AB-cryptate reagents).
For each compound, data were fit to a four parameter logistic fit (ActivityBase software) and the EC50 was reported as the inflection point of the resulting curve. Percent effect for each test compound was determined as the percentage of sample raw value/mean max effect, where the mean max effect was derived from the mean raw value of 32 control wells per assay plate (using Orexin A (cat #003-30) at 1 μM for human OX1R and a reference compound at 1 uM with 100% activity previously established by comparison to Orexin A for human OX2R). The intrinsic orexin receptor agonist activity of a compound which may be used in the present invention may be determined by these assays.

The IC50 is the concentration that gives 50% inhibition. The term Emax denotes the greatest response seen or fitted, relative to the assay's reference.

Consider `CCc1cc(-c2ccco2)ccc1CNC(=O)[C@H]1CN(S(=O)(=O)c2ccccc2)C[C@@H](C)N1C(=O)C(C)C` (relative stereo) [Example 47-6, cis-N-(2-ethyl-4-(furan-2-yl)benzyl)-1-isobutyryl-6-methyl-4-(phenylsulfonyl)piperazine-2-carboxamide], for which the IC50 is 10.9 nM and the Emax turned out to be 99.5%.

Take `Cc1c(CNC(=O)[C@H]2CN(S(=O)(=O)c3ccccc3)C[C@@H](C)N2C(=O)C(C)C)ccc(-c2ccco2)c1F` (relative stereo) [Example 51, cis-N-(3-fluoro-4-(furan-2-yl)-2-methylbenzyl)-1-isobutyryl-6-methyl-4-(phenylsulfonyl)piperazine-2-carboxamide]: the IC50 is 85.7 nM and the Emax is 99.8%.

With `Cc1cc(-c2ccco2)cnc1CNC(=O)[C@H]1CN(S(=O)(=O)c2ccccc2)C[C@@H](C)N1C(=O)C(C)C` (relative stereo) [Example 55, cis-N-((5-(furan-2-yl)-3-methylpyridin-2-yl)methyl)-1-isobutyryl-6-methyl-4-(phenylsulfonyl)piperazine-2-carboxamide], the IC50 came to 2980 nM and the maximal response (Emax) amounted to 93.5%.

With `C[C@@H]1CN(S(=O)(=O)c2ccccc2)C[C@H](C(=O)NCc2ccc3ccccc3c2)N1C(=O)c1cccs1` (relative stereo) [Example 57, cis-6-methyl-N-(naphthalen-2-ylmethyl)-4-(phenylsulfonyl)-1-(thiophene-2-carbonyl)piperazine-2-carboxamide], the IC50 amounted to 2540 nM and the Emax came out at 94.3%.

As to `CC[C@@H]1CN(S(=O)(=O)c2ccccc2)C[C@H](C(=O)NCc2ccc(-c3ccco3)cc2)N1C(=O)C(C)C` (relative stereo) [Example 71, cis-6-ethyl-N-(4-(furan-2-yl)benzyl)-1-isobutyryl-4-(phenylsulfonyl)piperazine-2-carboxamide], the IC50 is 244 nM and the Emax came out at 100%.

`CC(C)C(=O)N1[C@@H](C(=O)NCc2ccc(-c3ccco3)cc2)CN(S(=O)(=O)c2ccccc2)C[C@H]1C(F)(F)F` (relative stereo) [Example 78, cis-N-(4-(furan-2-yl)benzyl)-1-isobutyryl-4-(phenylsulfonyl)-6-(trifluoromethyl)piperazine-2-carboxamide]: the IC50 turned out to be 2670 nM and the Emax is 97.1%.

As to `CC(C)C(=O)N1[C@H](C)CN(S(=O)(=O)c2ccccc2)C[C@@H]1C(=O)NCc1ccc(OC(C)(F)F)cc1` (single isomer, unassigned) [Example 19-4-1], the IC50 came to 22.7 nM and the Emax came out at 100%.

Turning to `CC(C)C(=O)N1[C@@H](C)CN(S(=O)(=O)c2ccccc2)C[C@H]1C(=O)NCc1ccc(OC(C)(F)F)cc1` (single isomer, unassigned) [Example 19-4-2], the half-inhibitory concentration (IC50) was found to be 9100 nM and the Emax is 95.6%.

Consider `CC(C)C(=O)N1[C@H](C)CN(S(=O)(=O)c2ccccc2)C[C@@H]1C(=O)NCc1cnc(-c2ccco2)cn1` (single isomer, unassigned) [Example 35, cis-N-((5-(furan-2-yl)pyrazin-2-yl)methyl)-1-isobutyryl-6-methyl-4-(phenylsulfonyl)piperazine-2-carboxamide], for which the IC50 was 504 nM and the maximal response (Emax) came to 99.7%.

In the case of `CC(C)C(=O)N1[C@H](C)CN(S(=O)(=O)c2ccccc2)C[C@@H]1C(=O)NCc1ncc(-c2ccco2)cn1` (single isomer, unassigned) [Example 39], the IC50 turned out to be 6280 nM and the Emax worked out at 97.8%.

Regarding `CCC(F)(F)Oc1ccc(CNC(=O)[C@H]2CN(S(=O)(=O)c3ccccc3)C[C@@H](C)N2C(=O)C(C)C)cc1` (single isomer, unassigned) [Example 61, cis-N-(4-(1,1-difluoropropoxy)benzyl)-1-isobutyryl-6-methyl-4-(phenylsulfonyl)piperazine-2-carboxamide], the IC50 amounted to 100 nM and the Emax was found to be 93.2%.

For the compound `CC(C)C(=O)N1[C@H](C)CN(S(=O)(=O)c2ccccc2)C[C@@H]1C(=O)NCc1ccc(CC(C)(F)F)cc1` (single isomer, unassigned) [Example 66], the IC50 stood at 2230 nM and the Emax was determined as 97.9%.

As for `O=C(NCc1ccc2ccccc2c1)C1CN(S(=O)(=O)c2ccccc2)CCN1C(=O)c1cccs1` (stereo not drawn) [Example 6, N-(naphthalen-2-ylmethyl)-4-(phenylsulfonyl)-1-(thiophene-2-carbonyl)piperazine-2-carboxamide], the IC50 came to 2260 nM and the Emax was determined as 94.3%.

For the compound `CCC(C)C(=O)N1CCN(S(=O)(=O)c2ccccc2)CC1C(=O)NCc1ccc2ccccc2c1` (stereo not drawn) [Example 10-1, 1-(2-methylbutanoyl)-N-(naphthalen-2-ylmethyl)-4-(phenylsulfonyl)piperazine-2-carboxamide], the concentration for half-maximal inhibition (IC50) was 4310 nM and the Emax stood at 101%.

`CCC(=O)N1CCN(S(=O)(=O)c2ccccc2)CC1C(=O)NCc1ccc2ccccc2c1` (stereo not drawn) [Example 10-2, N-(naphthalen-2-ylmethyl)-4-(phenylsulfonyl)-1-propionylpiperazine-2-carboxamide]: the IC50 is 8900 nM and the Emax was 97.4%.

As to `CCCC(=O)N1CCN(S(=O)(=O)c2ccccc2)CC1C(=O)NCc1ccc2ccccc2c1` (stereo not drawn) [Example 10-3, 1-butyryl-N-(naphthalen-2-ylmethyl)-4-(phenylsulfonyl)piperazine-2-carboxamide], the IC50 was found to be 12200 nM and the Emax was 87.8%.

For `CC(C)C(=O)N1CCN(S(=O)(=O)c2ccccc2)CC1C(=O)NCc1ccc2ccccc2c1` (stereo not drawn) [Example 10-4, 1-isobutyryl-N-(naphthalen-2-ylmethyl)-4-(phenylsulfonyl)piperazine-2-carboxamide], the half-maximal inhibitory concentration (IC50) turned out to be 2610 nM and the Emax was 98.7%.

With `O=C(NCc1ccc2ccccc2c1)C1CN(S(=O)(=O)c2ccccc2)CCN1C(=O)C1CC1` (stereo not drawn) [Example 10-5, 1-(cyclopropanecarbonyl)-N-(naphthalen-2-ylmethyl)-4-(phenylsulfonyl)piperazine-2-carboxamide], the concentration for half-maximal inhibition (IC50) was 8990 nM and the Emax worked out at 98.7%.

Consider `O=C(NCc1ccc2ccccc2c1)C1CN(S(=O)(=O)c2ccccc2)CCN1C(=O)C1CCC1` (stereo not drawn) [Example 10-6, 1-(cyclobutanecarbonyl)-N-(naphthalen-2-ylmethyl)-4-(phenylsulfonyl)piperazine-2-carboxamide], for which the half-maximal inhibitory concentration (IC50) was 5000 nM and the Emax amounted to 96.8%.

On to `O=C(NCc1ccc2ccccc2c1)C1CN(S(=O)(=O)c2ccccc2)CCN1C(=O)c1nccs1` (stereo not drawn) [Example 10-7, N-(naphthalen-2-ylmethyl)-4-(phenylsulfonyl)-1-(thiazole-2-carbonyl)piperazine-2-carboxamide], for which the IC50 turned out to be 1870 nM and the Emax is 98.9%.

As to `O=C(NCc1ccc2ccccc2c1)C1CN(S(=O)(=O)c2ccccc2)CCN1C(=O)c1ccsc1` (stereo not drawn) [Example 10-8, N-(naphthalen-2-ylmethyl)-4-(phenylsulfonyl)-1-(thiophene-3-carbonyl)piperazine-2-carboxamide], the IC50 worked out at 4670 nM and the maximal effect (Emax) is 90%.

For `O=C(NCc1ccc2ccccc2c1)C1CN(S(=O)(=O)c2ccccc2)CCN1C(=O)c1ccco1` (stereo not drawn) [Example 10-9, 1-(furan-2-carbonyl)-N-(naphthalen-2-ylmethyl)-4-(phenylsulfonyl)piperazine-2-carboxamide], the IC50 stood at 6170 nM and the Emax amounted to 93.8%.

In the case of `O=C(NCc1ccc2ccccc2c1)C1CN(S(=O)(=O)c2ccccc2)CCN1C(=O)c1cncs1` (stereo not drawn) [Example 10-10, N-(naphthalen-2-ylmethyl)-4-(phenylsulfonyl)-1-(thiazole-5-carbonyl)piperazine-2-carboxamide], the IC50 is 11700 nM and the Emax was determined as 93.9%.

As to `Cc1ccccc1C(=O)N1CCN(S(=O)(=O)c2ccccc2)CC1C(=O)NCc1ccc2ccccc2c1` (stereo not drawn) [Example 10-11, 1-(2-methylbenzoyl)-N-(naphthalen-2-ylmethyl)-4-(phenylsulfonyl)piperazine-2-carboxamide], the IC50 is 100000 nM and the Emax came out at 19.4%.

The values are drawn from patent US20250282760A1 (Merck Sharp & Dohme LLC, priority 2022, published 2025).
